As usually defined, the CC50 is the concentration at which the toxic effect on the cells reaches its halfway point. Higher therefore signals better tolerance by the cells.

This is an account of results in article PMC10451377, “Rationally Designed Pyrimidine Compounds: Promising Novel Antibiotics for the Treatment of Staphylococcus aureus-Associated Bovine Mastitis” (Antibiotics, 2023).

The nature of data set [1]: LDH release assay. It is filed as cell-based. Particulars: human, HepG2 cells. For orientation: LDH in the medium is a marker of cell lysis.
In data set [2] the test system is all tested bacterial strains, including non-staphylococci strains. The experiment in a line: Broth microdilution MIC, summary over all strains tested. The following applies: read-out: MIC against all tested bacterial strains. For orientation: In broth dilution the organism is exposed to a series of concentrations in liquid medium.
Data set [3] can be described thus: MTT assay. Format: cell-based. Particulars: bovine, MAC-T cells, 24 h.
Data set [4] concerns Bacillus subtilis xpt-lacZ. Nature of the data set: Broth microdilution MIC. It is filed as cell-based. Particulars: B. subtilis xpt-lacZ, read-out: Broth Microdilution MIC.
In data set [5] the test system is Enterococcus faecalis ATCC 29212. Nature of the data set: Broth microdilution MIC. Particulars: ATCC29212, read-out: Broth Microdilution MIC.
In data set [6] the test system is Staphylococcus aureus CMRSA-10. The experiment in a line: Broth microdilution MIC. Format: cell-based. An excerpt: (§1) Reference strains for this study (S. aureus ATCC 29213, ATCC 29740 [bovine mastitis strain Newbould], S. epidermidis ATCC 12228, E. coli ATCC 35695, E. faecalis ATCC 29212) were obtained from the American Type Culture Collection (ATCC, Rockville, MD). S. aureus strains CMRSA-10 and CMRSA-2 were obtained from the Laboratoire de santé publique du Québec (LSPQ, Sainte-Anne-de-Bellevue, QC, Canada) and are Canadian CA-MRSA USA-300 and HA-MRSA USA-100 clones, respectively. The strain E. coli imp4213 (lptD), used as a control in MIC assays, is a derivative of E. coli ATCC 35695 (E. coli MC4100) with an increased membrane permeability. […] Other MRSA strains used in this study are clinical isolates of human origin obtained from the microbiology laboratory of the Centre Hospitalier Universitaire de Sherbrooke (CHUS, Sherbrooke, QC, Canada). Bovine mastitis strains (S. aureus, S. chromogenes, S. haemolyticus, S. hominis, S. simulans) were obtained from the Canadian Bovine Mastitis and Milk Quality Research Network (CBRQMN, St-Hyacinthe, QC, Canada). Among these strains, S. aureus 2117 is a high producer of biofilm and was used in the biofilm-eradication assay. S. epidermidis isolates were provided by Centre de Recherche en Infectiologie (CRI) de Québec (Québec, QC, Canada).

The test system of data set [7] is Staphylococcus aureus CMRSA-2. Nature of the data set: Broth microdilution MIC. Format: cell-based.
Text: as §1

A short description of data set [8]: MTT assay. It is filed as cell-based. Particulars: human, HepG2 cells. In general terms: Tetrazolium assays rely on reduction of a dye to a coloured formazan, in cell work by metabolically active cells.
The subject of data set [9] is Escherichia coli ΔlptD4213. The experiment in a line: microbe, parasite or virus in culture. It is filed as cell-based. The following applies: read-out: Broth Microdilution MIC.
Text: as §1

Data set [10] has as its system Staphylococcus aureus ATCC 29213. Nature of the data set: Broth microdilution MIC. The following applies: ATCC29213, read-out: Broth Microdilution MIC.
The nature of data set [11]: LDH release assay. It is filed as cell-based. The following applies: bovine, MAC-T cells, 24 h.
In data set [12] the test system is guanine riboswitch-lacZ fusion construct (xpt-lacZ). Nature of the data set: Riboswitch regulation assay (lacZ-gene reporter). It is filed as cell-based, B. subtilis. The source says:
The novel pyrimidine compounds, especially PC206, display specificity and potency against some staphylococci but not the other bacterial genus (Table 1 and Table 2). Because they are structurally derived from PC1 and PC2, these novel antibiotic candidates are expected to have the same mode of action. […] To verify this hypothesis, a strain of B. subtilis with a guanine riboswitch-lacZ fusion construct (named xpt-lacZ) integrated in its chromosome was exposed to these new antimicrobials. […] Therefore, it is an adequate reporter species. The metabolization of substrate ONPG into colored ONP was normalized by the bacterial suspension absorbance at 600 nm (Miller units) and relativized to the untreated condition.
β-galactosidase gene expression in the presence of the new pyrimidine analogs was studied, using an xpt-lacZ transcriptional fusion construct integrated in the genome of B. subtilis as previously described. Briefly, cultures were grown for 5 h at 35 °C in CAMHB, from an initial optical density of 0.05 at 600 nm (OD600), and then diluted 1:20 and in the presence of different concentrations of the compounds tested. Cultures were centrifuged for 10 min at 13,100 rpm, the supernatant was discarded, and pellets were suspended in a Z-buffer (NaH2PO4 40 mM, Na2HPO4 60 mM, MgSO4 1 mM, KCl 10 mM). Cultures OD600 were measured, and bacteria were then lysed with lysozyme (1 mg/mL) and β-mercaptoethanol 50 mM for 30 min. Lysates were centrifuged for 10 min at 13,100 rpm, and supernatants were incubated for 5 min at 30 °C with the substrate orthonitrophenyl-β-galactoside (ONPG; Sigma Aldrich). Reactions were stopped with Na2CO3 1M, supernatants OD420 were measured, and Miller units were calculated. A decrease in β-galactosidase activity indicated binding of the test compound to the riboswitch. Guanine and oxacillin were used as […] controls, respectively. The formula to measure Miller units is as follows: Millerunits=1000×OD420/t·v·OD600
Here, t represents the time of incubation with ONPG, and v represents the volume of the reaction.

In data set [13] the test system is Escherichia coli ATCC 35695. The experiment in a line: Broth microdilution MIC. Particulars: ATCC35695, read-out: Broth Microdilution MIC.
The test system of data set [14] is Staphylococcus epidermidis ATCC 12228. Nature of the data set: Broth microdilution MIC. Particulars: ATCC12228, read-out: Broth Microdilution MIC.
Data set [15] concerns HepG2 and MAC-T cells versus S. aureus Newbould. Nature of the data set: Selectivity ratios over both assays and both cell lines. It is filed as cell-based. Particulars: over MTT and LDH assays. As for the experimental part:
All CC50 values are reported in Table 3, and plots are provided in the Supplementary Information (Supplementary Figure S2). PC371 had no effect on cell viability even at the highest concentrations tested (CC50 > 600 μM) in both the MTT and the LDH assay and for the two cell lines tested. For the three other compounds, in both cell lines and both assays, a correlation was observed between the effect on cell viability and the length of their aliphatic chain. CC50 of PC372 (5 carbons) was higher than that of PC206 (6 carbons), and both were higher than that of PC383 (10 carbons). Indeed, for the MAC-T cells in the MTT assay, the values were >600 μM (PC372), 317 μM (PC206), and 13.5 μM (PC383). Again, for the MAC-T cell line, the values for the LDH assay were >600 μM (PC372 and PC206) and 23.6 μM (PC383). Similar results were obtained with the HepG2 cells. […] Overall, the MAC-T cells tolerated better exposure to the compounds than the HepG2 cells. To assess the selectivity of the PC2 analogs towards S. aureus, selectivity ratios were calculated. These ratios were obtained by dividing the cytotoxicity CC50 values of an analog by its MIC against S. aureus Newbould. It was not possible to calculate the selectivity ratio for PC371 as its CC50 and MIC values exceeded the maximum values tested.

Data set [16] has as its system all reference staphylococci strains tested, including MRSA. The experiment in a line: Broth microdilution MIC, summary over reference staphylococci. Particulars: Staphylococcus aureus, read-out: MIC ranging, against all reference staphylococci strains tested.
The subject of data set [17] is S. aureus. Also on record: method as in PMID 20421948. Particulars: compared with PC1; cited from earlier work.
The test system of data set [18] is S. aureus guanine riboswitch. Also on record: method as in PMID 20421948. The following applies: cited from earlier work.
On the set-up of data set [19]: method as in PMID 20421948. Particulars: presence of water and oxygen; cited from earlier work.
Where [20] appears, read: CMRSA10, S. aureus CMRSA-10, read-out: Broth Microdilution MIC.
Setting [21] is: CMRSA2, S. aureus CMRSA-2, read-out: Broth Microdilution MIC.

SMILES strings stand for the structures. ≈ marks a conversion by molar mass, not a printed value. Where two headings read alike, the source gives them in different places.

As for `CCCNc1cc(N)nc(N)n1` [PC371], the 50% cytotoxic concentration (CC50) at 24 h in data set [1], in data set [3], in data set [8] and in data set [11] was above 600 µM throughout. The MIC in data set [2] was above 128 µg/mL; in data set [4], above 128 µg/mL; in data set [5] it was above 128 µg/mL; in data set [6] (CMRSA10, read-out: Broth Microdilution MIC), above 128 µg/mL; in data set [7] (CMRSA2, read-out: Broth Microdilution MIC) it was above 128 µg/mL; in data set [9], above 128 µg/mL. In addition, the MIC in data set [10], in [13] and in [14] was above 128 µg/mL each time. The “Effect on Miller units” value in data set [12] (512 and 1024 μg/mL, one experiment) is listed as “did not have any effect on the reporter gene expression”.

In the case of `CCCCCCCCCCNc1cc(N)nc(N)n1` [PC383], the CC50 at 24 h was 6.6 ± 0.7 µM in [1], 13.5 ± 1.5 µM in [3], 11.7 ± 5.8 µM in [8] and 23.6 ± 8.4 µM in [11]. Moreover, the MIC in data set [2] is 4 to 16 µg/mL (≈ 15.1 to 60.3 µM); in [4], 4 µg/mL (≈ 15.1 µM); in data set [5] it was 4 µg/mL (≈ 15.1 µM); in [6] (setting [20]), 4 µg/mL (≈ 15.1 µM); in data set [7] (setting [21]) it was 4 µg/mL (≈ 15.1 µM); in data set [9], 8 µg/mL (≈ 30.1 µM). Also, the values for the MIC in data set [10], in data set [13] and in data set [14] were 4 µg/mL (≈ 15.1 µM), 16 µg/mL (≈ 60.3 µM) and 4 µg/mL (≈ 15.1 µM), respectively. In [15], the “Selectivity ratio (CC50/MIC against S. aureus Newbould), overall” value is recorded as around 1. The “Effect on Miller units” value in data set [12] (highest evaluated dose 2 µg/mL) is reported as “did not impact Miller units’ expression”.

Consider `CCCCCNc1cc(N)nc(N)n1` [PC372], for which the CC50 at 24 h in data set [1] was 394 ± 15 µM; in data set [3], above 600 µM; in [8], 341 ± 32 µM; in data set [11], above 600 µM. Also, the MIC in data set [4] was 128 µg/mL (≈ 656 µM); in [5], above 128 µg/mL; in data set [6] (setting [20]) it was 8 µg/mL (≈ 41 µM); in data set [7] (setting [21]), 16 µg/mL (≈ 81.9 µM); in data set [9], above 128 µg/mL; in data set [10], 16 µg/mL (≈ 81.9 µM). The MIC in data set [13] is above 128 µg/mL; in data set [16] it was 8 to 16 µg/mL (≈ 41 to 81.9 µM); in data set [14], 8 µg/mL (≈ 41 µM). Further, the “Selectivity ratio (CC50/MIC against S. aureus Newbould), overall” value in data set [15] is given as “above 3.9”. Moreover, in [12] (64 µg/mL), the “Miller units remaining, relative to the untreated condition” value was determined as 50%.

For `Nc1cc(O)nc(N)n1` [PC2], the “Antimicrobial activity against S. aureus” value in [17] is listed as “much lower antimicrobial activity”. Further, the “Binding to the guanine riboswitch” value in [18] is “bind the riboswitch ex vivo”. For the same molecule, the Chemical stability entry in data set [19] is listed as “more chemically stable”.

Regarding `Nc1nc(N)c(N)c(O)n1` [PC1, 2,5,6-triaminopyrimidine-4-one, reference compound], the “Binding to the guanine riboswitch” value in data set [18] is recorded as “binding the guanine riboswitch of S. aureus”. The MIC in [4] (in the presence of 1.5 mM DTT) is above 128 µg/mL; in data set [6] (CMRSA10, S. aureus CMRSA-10, in the presence of 1.5 mM DTT, read-out: Broth Microdilution MIC), 2 µg/mL; in data set [7] (CMRSA2, S. aureus CMRSA-2, in the presence of 1.5 mM DTT, read-out: Broth Microdilution MIC), 1 µg/mL. Further, the Chemical stability result in data set [19] is recorded as “chemically unstable”.
